The results in this text go back to patent publication US10556914B2, “Substituted isoxazolopyridazinones and isothiazolopyridazinones and methods of use” (AbbVie Inc., priority 2015, dated 2020).

SMILES strings stand for the structures.

Sequence of GABA-B receptor (Q9Z0U4 17-960): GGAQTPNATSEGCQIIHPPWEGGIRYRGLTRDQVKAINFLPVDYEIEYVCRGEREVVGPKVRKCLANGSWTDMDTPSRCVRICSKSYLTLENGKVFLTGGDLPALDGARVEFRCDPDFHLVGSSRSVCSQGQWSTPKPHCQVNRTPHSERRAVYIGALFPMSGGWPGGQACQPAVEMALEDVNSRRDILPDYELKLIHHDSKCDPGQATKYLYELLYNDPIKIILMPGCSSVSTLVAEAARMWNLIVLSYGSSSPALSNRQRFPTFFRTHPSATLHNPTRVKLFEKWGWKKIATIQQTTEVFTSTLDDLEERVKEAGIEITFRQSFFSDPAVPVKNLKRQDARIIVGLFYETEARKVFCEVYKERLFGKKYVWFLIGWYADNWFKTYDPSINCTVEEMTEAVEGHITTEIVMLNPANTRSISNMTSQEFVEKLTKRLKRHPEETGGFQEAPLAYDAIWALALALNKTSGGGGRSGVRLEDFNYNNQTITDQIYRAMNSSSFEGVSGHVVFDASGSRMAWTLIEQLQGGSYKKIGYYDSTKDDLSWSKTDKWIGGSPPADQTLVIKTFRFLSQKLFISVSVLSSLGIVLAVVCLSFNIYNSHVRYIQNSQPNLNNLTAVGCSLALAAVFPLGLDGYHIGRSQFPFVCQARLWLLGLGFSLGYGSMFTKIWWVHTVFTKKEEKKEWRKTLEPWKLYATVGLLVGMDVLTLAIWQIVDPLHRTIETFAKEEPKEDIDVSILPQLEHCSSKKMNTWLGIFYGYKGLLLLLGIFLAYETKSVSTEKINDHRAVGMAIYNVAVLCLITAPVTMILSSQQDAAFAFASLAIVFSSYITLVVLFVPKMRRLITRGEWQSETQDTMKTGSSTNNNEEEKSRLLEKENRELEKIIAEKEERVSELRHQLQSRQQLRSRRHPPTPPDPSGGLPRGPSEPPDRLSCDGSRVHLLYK
Sequence of GABA-B receptor (O88871 41-940): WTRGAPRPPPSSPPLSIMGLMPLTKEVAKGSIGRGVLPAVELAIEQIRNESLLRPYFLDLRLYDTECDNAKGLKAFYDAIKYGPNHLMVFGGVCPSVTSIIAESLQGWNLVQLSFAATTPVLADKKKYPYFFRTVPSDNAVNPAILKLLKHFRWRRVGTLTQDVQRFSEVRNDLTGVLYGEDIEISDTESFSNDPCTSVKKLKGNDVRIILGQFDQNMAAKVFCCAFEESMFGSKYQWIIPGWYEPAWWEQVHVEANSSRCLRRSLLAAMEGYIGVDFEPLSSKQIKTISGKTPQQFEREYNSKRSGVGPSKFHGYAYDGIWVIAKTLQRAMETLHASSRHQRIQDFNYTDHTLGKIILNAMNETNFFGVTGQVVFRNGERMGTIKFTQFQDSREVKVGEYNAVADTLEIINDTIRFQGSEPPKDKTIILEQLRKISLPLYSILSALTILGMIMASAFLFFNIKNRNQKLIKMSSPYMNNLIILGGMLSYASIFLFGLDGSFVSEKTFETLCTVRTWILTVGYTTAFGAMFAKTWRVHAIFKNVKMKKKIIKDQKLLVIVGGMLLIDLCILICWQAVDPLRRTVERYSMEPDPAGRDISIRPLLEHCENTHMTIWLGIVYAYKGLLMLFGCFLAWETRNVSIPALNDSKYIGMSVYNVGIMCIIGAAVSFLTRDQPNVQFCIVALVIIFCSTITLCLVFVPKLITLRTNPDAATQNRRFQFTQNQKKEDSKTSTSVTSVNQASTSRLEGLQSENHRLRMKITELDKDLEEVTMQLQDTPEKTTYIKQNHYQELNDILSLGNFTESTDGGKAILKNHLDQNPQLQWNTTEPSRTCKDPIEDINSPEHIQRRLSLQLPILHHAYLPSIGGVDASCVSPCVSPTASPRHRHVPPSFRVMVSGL

The assay concerns the target GABA-B receptor (Rattus norvegicus (Rat), UniProt O88871+Q9Z0U4). Description: [35S]GTPgS Binding Assay (rat brain cortex membranes, native receptor). The assay is classed as biochemical. The following applies: rat cortical membranes; in the presence of 1 μM GABA (EC25); basal binding 0%, maximal binding (1 mM GABA) 100%. The method, then:
Preparation of Rat Brain Membranes for Native Receptor Assays
Membranes from rat brain cortex were prepared as described in detail by Olpe et al. and stored at concentrations of 1.66 mg/mL protein at −80° C. until required. (Olpe, H.-R, et al. Eur J Pharmacol 1990; 187: 27-38).
[^35S]GTPgS Binding Assay
The samples were incubated at room temperature for 60 minutes on a shaker. The incubation was stopped by rapid vacuum filtration over glass-fiber filter plates (UniFilter-96 well, GF/B membrane plates, PerkinElmer) using a 96-well plate harvester (TOMTEK© Harvester). The UniFilter plate was washed five times with ice-cold wash buffer (50 mM Tris-HCl buffer, pH 7.7, 10 mM MgCl2, and 100 mM NaCl. After filtration the plate was dried for 90 minutes at 55° C. The plates were closed on the bottom with black sealing membranes, and liquid scintillation cocktail (35 μL, Betaplate Scint, PerkinElmer) was added to each well. After sealing the top of the plate, an additional incubation step of 90 minutes at room temperature followed before measuring the plate. The amount of membrane-bound [^35S]GTPgS was measured using a 96-well plate reader (Microbeta®, PerkinElmer). Nonspecific binding was measured in the presence of unlabeled 10 μM of GTPgS (Millipore) and without GABA. Basal binding was measured in the absence of 1 μM GABA, and maximal binding was measured in the presence of GABA using 1 mM GABA concentrations.
Data analysis. The concentration-response curves of compounds of the present disclosure in the presence of EC25 of GABA-B receptor agonist were generated using the GraphPad Prism® program (GraphPad Software, San Diego, Calif.). Data was normalized using basal binding as 0% and maximal binding as 100%. The curves were fitted by nonlinear regression allowing determination of EC50 values from sigmoidal dose-response curves. Each curve was performed using triplicate sample per date point and 10 concentrations.
In general terms: GTPγS is a poorly hydrolysed GTP analogue; its binding reports G protein activation.
What is called EC50 is the concentration giving half of the maximal effect. In the case of `Cc1noc2c(-c3ccc(F)c(F)c3)nn(Cc3ccc(Cl)cc3)c(=O)c12` [Example 42, 5-(4-chlorobenzyl)-7-(3,4-difluorophenyl)-3-methyl[1,2]oxazolo[4,5-d]pyridazin-4(5H)-one], the EC50 came to 9640 nM.
For the compound `COc1ccc(NC(C)=O)cc1-c1nn(Cc2ccc(Cl)cc2)c(=O)c2c(C)noc12` [Example 45, N-{3-[5-(4-chlorobenzyl)-3-methyl-4-oxo-4,5-dihydro[1,2]oxazolo[4,5-d]pyridazin-7-yl]-4-methoxyphenyl}acetamide], the EC50 amounted to 376 nM.
For `COc1ccccc1-c1nn(Cc2cc(C(F)(F)F)ccc2F)c(=O)c2c(C)noc12` [Example 46, 5-[2-fluoro-5-(trifluoromethyl)benzyl]-7-(2-methoxyphenyl)-3-methyl[1,2]oxazolo[4,5-d]pyridazin-4(5H)-one], the EC50 stood at 2290 nM.
As for `COc1ccc(OC)c(-c2nn(Cc3ccc(Cl)cc3)c(=O)c3c(C4CC4)noc23)c1` [Example 47, 5-(4-chlorobenzyl)-3-cyclopropyl-7-(2,5-dimethoxyphenyl)[1,2]oxazolo[4,5-d]pyridazin-4(5H)-one], the EC50 was determined as 578 nM.
Then `COc1ccc(-c2nn(Cc3cc(C(F)(F)F)ccc3F)c(=O)c3c(C)noc23)c(OC)c1` [Example 48, 7-(2,4-dimethoxyphenyl)-5-[2-fluoro-5-(trifluoromethyl)benzyl]-3-methyl[1,2]oxazolo[4,5-d]pyridazin-4(5H)-one], with 1550 nM.
Turning to `CC(=O)Nc1ccc(OC(F)(F)F)c(-c2nn(C(C)c3ccc(Cl)cc3)c(=O)c3c(C)noc23)c1` (centres unmarked) [Example 49, N-[3-{5-[1-(4-chlorophenyl)ethyl]-3-methyl-4-oxo-4,5-dihydro[1,2]oxazolo[4,5-d]pyridazin-7-yl}-4-(trifluoromethoxy)phenyl]acetamide], the half-maximal effective concentration (EC50) came out at 283 nM.
In the case of `CC(=O)Nc1cccc(-c2nn(Cc3ccc(Cl)cc3)c(=O)c3c(C4CC4)noc23)c1` [Example 51, N-{3-[5-(4-chlorobenzyl)-3-cyclopropyl-4-oxo-4,5-dihydro[1,2]oxazolo[4,5-d]pyridazin-7-yl]phenyl}acetamide], the EC50 is 1500 nM.
In the case of `CCCc1noc2c(-c3cc(OC)ccc3OC)nn(Cc3ccc(Cl)cc3)c(=O)c12` [Example 52, 5-(4-chlorobenzyl)-7-(2,5-dimethoxyphenyl)-3-propyl[1,2]oxazolo[4,5-d]pyridazin-4(5H)-one], the EC50 was over 10000 nM.
As for `Cc1noc2c(-c3cccc(S(N)(=O)=O)c3)nn(C(C)c3ccc(Cl)cc3)c(=O)c12` (centres unmarked) [Example 53, 3-{5-[1-(4-chlorophenyl)ethyl]-3-methyl-4-oxo-4,5-dihydro[1,2]oxazolo[4,5-d]pyridazin-7-yl}benzenesulfonamide], the EC50 was found to be 620 nM.
Then `COc1ccccc1-c1nn(Cc2ccc(F)c(C(F)(F)F)c2)c(=O)c2c(C)noc12` [Example 54, 5-[4-fluoro-3-(trifluoromethyl)benzyl]-7-(2-methoxyphenyl)-3-methyl[1,2]oxazolo[4,5-d]pyridazin-4(5H)-one], with 1200 nM.
Regarding `COc1ccc(NS(C)(=O)=O)cc1-c1nn(C(C)c2ccc(Cl)cc2)c(=O)c2c(C)noc12` (centres unmarked) [Example 55, N-(3-{5-[1-(4-chlorophenyl)ethyl]-3-methyl-4-oxo-4,5-dihydro[1,2]oxazolo[4,5-d]pyridazin-7-yl}-4-methoxyphenyl)methanesulfonamide], the EC50 came to 80 nM.
The same measure for `Cc1noc2c(-c3cccs3)nn(Cc3ccc(Cl)cc3)c(=O)c12` [Example 56, 5-(4-chlorobenzyl)-3-methyl-7-(thiophen-2-yl)[1,2]oxazolo[4,5-d]pyridazin-4(5H)-one]: 982 nM; for `CC(=O)Nc1cccc(-c2nn(Cc3ccc(C(F)(F)F)cc3)c(=O)c3c(C)noc23)c1` [Example 57, N-(3-{3-methyl-4-oxo-5-[4-(trifluoromethyl)benzyl]-4,5-dihydro[1,2]oxazolo[4,5-d]pyridazin-7-yl}phenyl)acetamide]: 3330 nM; for `COc1ccc(C(N)=O)cc1-c1nn(C(C)c2ccc(Cl)cc2)c(=O)c2c(C)noc12` (centres unmarked) [Example 59]: 17 nM.
